Results published in PubChem BioAssay (NCI).
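Growth conditions: 96-well plates. Treatment: test compound, 48 hours, 5 concentrations. Analysis: linear interpolation between bracketing concentrations; unreached endpoints set to highest concentration. Here, GI50 denotes the concentration required for 50% inhibition of growth. TGI denotes the concentration required for complete inhibition of growth.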

Tests used:
Assay in all cases: inhibition of tumour cell growth, NCI panel, 48 h
ACHN renal = tested on: ACHN renal
HCC-2998 colon = tested on: HCC-2998 colon
HCT-15 colon = tested on: HCT-15 colon
IGROV1 ovarian = tested on: IGROV1 ovarian
LOX IMVI melanoma = tested on: LOX IMVI melanoma
MOLT-4 leukemia = tested on: MOLT-4 leukemia
SK-OV-3 ovarian = tested on: SK-OV-3 ovarian
HOP-62 NSCLC = tested on: HOP-62 NSCLC
RPMI-8226 leukemia = tested on: RPMI-8226 leukemia
NCI-H226 lung = tested on: NCI-H226 lung

## C/C=C(/CCCCNCCCC)[Si](C)(C)C
ACHN renal
  TGI: 26.9 µM
HCC-2998 colon
  TGI: 18.2 µM
HCT-15 colon
  TGI: 30 µM
IGROV1 ovarian
  TGI: 37 µM
LOX IMVI melanoma
  TGI: 28.3 µM
MOLT-4 leukemia
  TGI: 31.2 µM
SK-OV-3 ovarian
  TGI: 33.6 µM

## Cc1cn2c(/C=N/N/C(N)=N\N)c(-c3ccc(Cl)c([N+](=O)[O-])c3)nc2s1
ACHN renal
  GI50: 0.928 µM
  TGI: 1.63 µM
HCT-15 colon
  GI50: 0.968 µM
  TGI: 2.04 µM
HOP-62 NSCLC
  GI50: 4.98 µM
  TGI: 15.9 µM
IGROV1 ovarian
  GI50: 3.55 µM
  TGI: 37.8 µM
RPMI-8226 leukemia
  GI50: 4.54 µM
  TGI: > 50 µM
SK-OV-3 ovarian
  GI50: 1.29 µM
  TGI: 2.78 µM

## S=c1ssc(Sc2ccccn2)c1Cl
ACHN renal
  GI50: 4.62 µM
  TGI: 16.7 µM
HCC-2998 colon
  GI50: 3.97 µM
  TGI: 15.1 µM
HCT-15 colon
  GI50: 5.26 µM
  TGI: 18.1 µM
HOP-62 NSCLC
  GI50: 17.5 µM
  TGI: 31.3 µM
LOX IMVI melanoma
  GI50: 5.09 µM
  TGI: 17 µM
MOLT-4 leukemia
  GI50: 2.53 µM
  TGI: 5.84 µM
NCI-H226 lung
  GI50: 23 µM
  TGI: 58.8 µM
RPMI-8226 leukemia
  GI50: 1.56 µM
  TGI: 4.14 µM
SK-OV-3 ovarian
  GI50: 23.7 µM
  TGI: 47.7 µM

## CC(C)=CC(=O)CC(=O)C(=O)Nc1ccc(Cl)c(Cl)c1
ACHN renal
  TGI: > 100 µM
HCC-2998 colon
  TGI: > 100 µM
HCT-15 colon
  TGI: > 100 µM
HOP-62 NSCLC
  TGI: > 100 µM
IGROV1 ovarian
  TGI: > 100 µM
MOLT-4 leukemia
  TGI: > 100 µM
NCI-H226 lung
  TGI: > 100 µM
RPMI-8226 leukemia
  TGI: > 100 µM
SK-OV-3 ovarian
  TGI: > 100 µM

## CC(=O)C1=C([O-])C(C)OC1=O.CC(=O)C1=C([O-])C(C)OC1=O.[NH-]C1CCCC[C@H]1[NH-].[Pt+4] (centres undefined)
ACHN renal
  GI50: 73.2 µM
  TGI: > 100 µM
HCC-2998 colon
  GI50: > 100 µM
  TGI: > 100 µM
HCT-15 colon
  GI50: 67.4 µM
  TGI: > 100 µM
HOP-62 NSCLC
  GI50: > 100 µM
  TGI: > 100 µM
IGROV1 ovarian
  GI50: > 100 µM
  TGI: > 100 µM
LOX IMVI melanoma
  GI50: 96.6 µM
  TGI: > 100 µM
MOLT-4 leukemia
  GI50: 3.9 µM
  TGI: 53.9 µM
RPMI-8226 leukemia
  GI50: 8.72 µM
  TGI: > 100 µM
SK-OV-3 ovarian
  GI50: > 100 µM
  TGI: > 100 µM

## CCOC(=O)/C(C#N)=C1\N[C@H](C(=O)OCC)CO1
ACHN renal
  TGI: > 100 µM
HCC-2998 colon
  TGI: > 100 µM
HCT-15 colon
  TGI: > 100 µM
HOP-62 NSCLC
  TGI: > 100 µM
IGROV1 ovarian
  TGI: > 100 µM
LOX IMVI melanoma
  TGI: > 100 µM
MOLT-4 leukemia
  TGI: > 100 µM
NCI-H226 lung
  TGI: > 100 µM
RPMI-8226 leukemia
  TGI: > 100 µM

## COc1cnc2c(c1)C(=O)c1c-2n(CCCN2CCCC2)c(=O)c2cc(Cl)ccc12
ACHN renal
  GI50: 0.0753 µM
  TGI: 6.42 µM
HCC-2998 colon
  GI50: 5.07 µM
  TGI: 12.1 µM
HCT-15 colon
  GI50: 1.73 µM
  TGI: 10.3 µM
IGROV1 ovarian
  GI50: 2.47 µM
  TGI: 12.5 µM
LOX IMVI melanoma
  GI50: 0.0423 µM
  TGI: 5.96 µM
MOLT-4 leukemia
  GI50: 0.0193 µM
  TGI: 6.23 µM
NCI-H226 lung
  GI50: 3.27 µM
  TGI: 14.4 µM
RPMI-8226 leukemia
  GI50: 5.26 µM
  TGI: 16.3 µM
SK-OV-3 ovarian
  GI50: 1.47 µM
  TGI: 10.5 µM

## COc1ccc2c(C(=O)O)cc3cc(OC)c(OC)cc3c2c1
ACHN renal
  TGI: > 100 µM
HCC-2998 colon
  TGI: > 100 µM
HCT-15 colon
  TGI: > 100 µM
IGROV1 ovarian
  TGI: > 100 µM
LOX IMVI melanoma
  TGI: > 100 µM
MOLT-4 leukemia
  TGI: > 100 µM
NCI-H226 lung
  TGI: > 100 µM
RPMI-8226 leukemia
  TGI: > 100 µM
SK-OV-3 ovarian
  TGI: > 100 µM

## N#CC1C(N)=NNC12Nc1ccccc1N2 (centres undefined)
ACHN renal
  GI50: 34.9 µM
  TGI: > 100 µM
HCC-2998 colon
  GI50: 31.9 µM
  TGI: > 100 µM
HCT-15 colon
  GI50: 31.4 µM
  TGI: > 100 µM
HOP-62 NSCLC
  GI50: 64.3 µM
  TGI: > 100 µM
IGROV1 ovarian
  GI50: 11.9 µM
  TGI: 71.3 µM
LOX IMVI melanoma
  GI50: 26.7 µM
  TGI: > 100 µM
RPMI-8226 leukemia
  GI50: 2.91 µM
  TGI: 7.8 µM
SK-OV-3 ovarian
  GI50: 30 µM
  TGI: > 100 µM

## CC1CC2(CC[C@@H]1O)OCCO2 (some centres undefined)
HCC-2998 colon
  TGI: > 100 µM
HCT-15 colon
  TGI: > 100 µM
HOP-62 NSCLC
  TGI: > 100 µM
IGROV1 ovarian
  TGI: > 100 µM
LOX IMVI melanoma
  TGI: > 100 µM
MOLT-4 leukemia
  TGI: > 100 µM
RPMI-8226 leukemia
  TGI: > 100 µM
SK-OV-3 ovarian
  TGI: > 100 µM

## O=c1[nH]cc(OCC(F)(F)F)c(=O)[nH]1
ACHN renal
  TGI: > 100 µM
HCC-2998 colon
  TGI: > 100 µM
HCT-15 colon
  TGI: > 100 µM
HOP-62 NSCLC
  TGI: > 100 µM
IGROV1 ovarian
  TGI: > 100 µM
LOX IMVI melanoma
  TGI: > 100 µM
MOLT-4 leukemia
  TGI: > 100 µM
RPMI-8226 leukemia
  TGI: > 100 µM
SK-OV-3 ovarian
  TGI: > 100 µM

## CN(C)C(=O)C1CCC(=C2C(=O)OC(C)(C)OC2=O)N1C (centres undefined)
ACHN renal
  TGI: > 100 µM
HCC-2998 colon
  TGI: > 100 µM
HCT-15 colon
  TGI: > 100 µM
HOP-62 NSCLC
  TGI: > 100 µM
IGROV1 ovarian
  TGI: > 100 µM
LOX IMVI melanoma
  TGI: > 100 µM
MOLT-4 leukemia
  TGI: > 100 µM
NCI-H226 lung
  TGI: > 100 µM
SK-OV-3 ovarian
  TGI: > 100 µM

## C=C(C)[C@@H]1CC[C@@]2(C)[C@H]1[C@H]1CCC3[C@@]4(C)CC[C@H](O)C(C)(C)[C@@H]4CC[C@@]3(C)[C@]1(C)C[C@@H]2O (some centres undefined)
ACHN renal
  TGI: > 100 µM
HCT-15 colon
  TGI: > 100 µM
HOP-62 NSCLC
  TGI: > 100 µM
IGROV1 ovarian
  TGI: > 100 µM
LOX IMVI melanoma
  TGI: > 100 µM
MOLT-4 leukemia
  TGI: > 100 µM
NCI-H226 lung
  TGI: > 100 µM

## CC(C)(Br)C(=O)/C=C/c1ccccc1
ACHN renal
  TGI: 6.74 µM
HCT-15 colon
  TGI: 4.63 µM
HOP-62 NSCLC
  TGI: 15.6 µM
IGROV1 ovarian
  TGI: 1.79 µM
LOX IMVI melanoma
  TGI: 9.75 µM
MOLT-4 leukemia
  TGI: > 43.7 µM
NCI-H226 lung
  TGI: 24 µM
RPMI-8226 leukemia
  TGI: 3.14 µM
SK-OV-3 ovarian
  TGI: > 83.1 µM

## Cc1cccc(C)c1NC(=O)CCCC(=O)C1CCC/C1=N\NC(=O)C(=O)NN (centres undefined)
ACHN renal
  TGI: > 100 µM
HCC-2998 colon
  TGI: > 100 µM
HCT-15 colon
  TGI: > 100 µM
LOX IMVI melanoma
  TGI: > 100 µM
MOLT-4 leukemia
  TGI: > 100 µM
NCI-H226 lung
  TGI: > 100 µM
RPMI-8226 leukemia
  TGI: > 100 µM
SK-OV-3 ovarian
  TGI: > 100 µM

## CCC1CN2CCc3cc(OC)c(OC)cc3C2CC1CC1c2cc(OC)c(OC)cc2CCN1C(=O)CNC(=O)OC(C)(C)C (centres undefined)
ACHN renal
  TGI: 54.4 µM
HCC-2998 colon
  TGI: 12.3 µM
HCT-15 colon
  TGI: 68.7 µM
IGROV1 ovarian
  TGI: 74.6 µM
LOX IMVI melanoma
  TGI: 73.6 µM
MOLT-4 leukemia
  TGI: 23.1 µM
NCI-H226 lung
  TGI: 53 µM
RPMI-8226 leukemia
  TGI: 48.6 µM
SK-OV-3 ovarian
  TGI: 64.7 µM

## Clc1ccc2nc(Oc3ccccc3)cnc2c1
ACHN renal
  GI50: > 100 µM
  TGI: > 100 µM
HCC-2998 colon
  GI50: > 100 µM
  TGI: > 100 µM
HCT-15 colon
  GI50: > 100 µM
  TGI: > 100 µM
HOP-62 NSCLC
  GI50: > 100 µM
  TGI: > 100 µM
LOX IMVI melanoma
  GI50: > 100 µM
  TGI: > 100 µM
MOLT-4 leukemia
  GI50: > 100 µM
  TGI: > 100 µM
NCI-H226 lung
  GI50: > 100 µM
  TGI: > 100 µM
RPMI-8226 leukemia
  GI50: > 100 µM
  TGI: > 100 µM
SK-OV-3 ovarian
  GI50: > 100 µM
  TGI: > 100 µM

## CN(C)c1ccc(C(N)=O)cn1
ACHN renal
  TGI: > 100 µM
HCC-2998 colon
  TGI: > 100 µM
HCT-15 colon
  TGI: > 100 µM
HOP-62 NSCLC
  TGI: > 100 µM
IGROV1 ovarian
  TGI: > 100 µM
LOX IMVI melanoma
  TGI: > 100 µM
MOLT-4 leukemia
  TGI: > 100 µM
RPMI-8226 leukemia
  TGI: > 100 µM

## O=C(O)c1c[nH]cc1C(=O)O
HCT-15 colon
  TGI: > 100 µM
HOP-62 NSCLC
  TGI: > 100 µM
IGROV1 ovarian
  TGI: > 100 µM
LOX IMVI melanoma
  TGI: > 100 µM
MOLT-4 leukemia
  TGI: > 100 µM
NCI-H226 lung
  TGI: > 100 µM
RPMI-8226 leukemia
  TGI: > 100 µM
SK-OV-3 ovarian
  TGI: > 100 µM
